# In publication PMC8286840, “Identifying SARS-CoV-2 antiviral compounds by screening for small molecule inhibitors of Nsp3 papain-like protease” (Biochemical Journal, 2021):
# Where a name gives a salt, the structure may show the parent alone. Read-outs that look alike come from different tables or passages of the source.
# Tests used:
# [1] = biological target: T1, SARS-CoV-2 PLpro (nsp3 1564–1878) (Severe acute respiratory syndrome coronavirus 2, UniProt P0DTD1); test: biochemical; set-up: FRET-quenched peptide (Pro3) cleavage by PLpro, 10 min pre-incubation, slope over 20 min, normalised to no-compound control; details: low concentration screen, read-out: % of control remaining
# [2] = biological target: T1, SARS-CoV-2 PLpro (nsp3 1564–1878); test: biochemical; set-up: FRET-quenched peptide (Pro3) cleavage by PLpro, 10 min pre-incubation, slope over 20 min, normalised to no-compound control; details: high concentration screen, read-out: % of control remaining
smiles,measurement,setting,value
COc1ccc(S(=O)(=O)Nc2nc(-c3cccc([N+](=O)[O-])c3)cs2)cc1OC [Ro 61-8048],remaining activity at 1.25 µM,[1]; Well no.=5865,109%
same,remaining activity at 3.75 µM,[2]; Well no.=5865,106%
CCCCOC(=O)NC(=O)C1c2ccccc2Oc2ccccc21 [Ro 67-4853],remaining activity at 1.25 µM,[1]; Well no.=5989,102%
same,remaining activity at 3.75 µM,[2]; Well no.=5989,99.5%
Cc1ccc(S(=O)(=O)N2CCC[C@H]2c2ccc(F)cc2)cc1 [Ro 67-7476],remaining activity at 1.25 µM,[1]; Well no.=8053,99.6%
same,remaining activity at 3.75 µM,[2]; Well no.=8053,102%
Cn1cc(C2=C(c3cn(CCCSC(=N)N)c4ccccc34)C(=O)NC2=O)c2ccccc21 [Ro-31-8220],remaining activity at 1.25 µM,[1]; Well no.=2633,98.6%
same,remaining activity at 3.75 µM,[2]; Well no.=2633,96.9%
O=C(CCCCCCNC(=O)c1cnc(N(c2ccccc2)c2ccccc2)nc1)NO [Rocilinostat (ACY-1215)],remaining activity at 1.25 µM,[1]; Well no.=4786,101%
same,remaining activity at 3.75 µM,[2]; Well no.=4786,102%
C=CC[N+]1([C@H]2C[C@H]3[C@@H]4CC[C@H]5C[C@H](O)[C@@H](N6CCOCC6)C[C@]5(C)[C@H]4CC[C@]3(C)[C@H]2OC(C)=O)CCCC1 [Rocuronium bromide],remaining activity at 1.25 µM,[1]; Well no.=2019,103%
same,remaining activity at 3.75 µM,[2]; Well no.=2019,105%
CS(=O)(=O)c1ccc(C2=C(c3ccccc3)C(=O)OC2)cc1 [Rofecoxib],remaining activity at 1.25 µM,[1]; Well no.=1724,101%
same,remaining activity at 3.75 µM,[2]; Well no.=1724,100%
O=C(Nc1c(Cl)cncc1Cl)c1ccc(OC(F)F)c(OCC2CC2)c1 [Roflumilast],remaining activity at 1.25 µM,[1]; Well no.=5877,94.1%
same,remaining activity at 3.75 µM,[2]; Well no.=5877,94.8%
C[C@@H](OC[C@@]1(c2ccccc2)CC[C@]2(CCC(=O)N2)CN1)c1cc(C(F)(F)F)cc(C(F)(F)F)c1 [Rolapitant],remaining activity at 1.25 µM,[1]; Well no.=7469,104%
same,remaining activity at 3.75 µM,[2]; Well no.=7469,96.2%
COc1ccc(C2CNC(=O)C2)cc1OC1CCCC1 (stereo not shown) [Rolipram],remaining activity at 1.25 µM,[1]; Well no.=1302,102%
same,remaining activity at 1.25 µM,[1]; Well no.=2152,101%
same,remaining activity at 3.75 µM,[2]; Well no.=1302,103%
same,remaining activity at 3.75 µM,[2]; Well no.=2152,102%
Cn1c([N+](=O)[O-])cnc1COC(N)=O [Ronidazole],remaining activity at 1.25 µM,[1]; Well no.=4700,99.8%
same,remaining activity at 3.75 µM,[2]; Well no.=4700,96.7%
CCCN(CCC)CCc1cccc2c1CC(=O)N2 [Ropinirole (hydrochloride)],remaining activity at 1.25 µM,[1]; Well no.=8205,99.3%
same,remaining activity at 3.75 µM,[2]; Well no.=8205,90.6%
CCCN(CCC)CCc1cccc2c1CC(=O)N2 [Ropinirole hydrochloride],remaining activity at 1.25 µM,[1]; Well no.=1444,93.6%
same,remaining activity at 3.75 µM,[2]; Well no.=1444,97.7%
CCCN1CCCC[C@H]1C(=O)Nc1c(C)cccc1C [Ropivacaine HCl],remaining activity at 1.25 µM,[1]; Well no.=4698,99%
same,remaining activity at 3.75 µM,[2]; Well no.=4698,96.6%
CCCN1CCCC[C@H]1C(=O)Nc1c(C)cccc1C [Ropivacaine hydrochloride],remaining activity at 1.25 µM,[1]; Well no.=5891,98.9%
same,remaining activity at 3.75 µM,[2]; Well no.=5891,97.5%
CN(C(=O)c1c(O)c2ccccc2n(C)c1=O)c1ccccc1 [Roquinimex],remaining activity at 1.25 µM,[1]; Well no.=6160,103%
same,remaining activity at 3.75 µM,[2]; Well no.=6160,96.9%
O[C@@H]1[C@@H](O)[C@H](OC/C=C/c2ccccc2)O[C@H](CO[C@@H]2OC[C@H](O)[C@H](O)[C@H]2O)[C@H]1O [Rosavin],remaining activity at 1.25 µM,[1]; Well no.=5422,101%
same,remaining activity at 3.75 µM,[2]; Well no.=5422,104%
CN(CCOc1ccc(CC2SC(=O)NC2=O)cc1)c1ccccn1 (stereo not shown) [Rosiglitazone (Avandia)],remaining activity at 1.25 µM,[1]; Well no.=4924,95.4%
same,remaining activity at 3.75 µM,[2]; Well no.=4924,89.9%
CN(CCOc1ccc(CC2SC(=O)NC2=O)cc1)c1ccccn1 (stereo not shown) [Rosiglitazone HCl],remaining activity at 1.25 µM,[1]; Well no.=4758,102%
same,remaining activity at 3.75 µM,[2]; Well no.=4758,97.3%
CN(CCOc1ccc(CC2SC(=O)NC2=O)cc1)c1ccccn1 (stereo not shown) [Rosiglitazone maleate],remaining activity at 1.25 µM,[1]; Well no.=1651,104%
same,remaining activity at 3.75 µM,[2]; Well no.=1651,105%
O=C(/C=C/c1ccc(O)c(O)c1)O[C@H](Cc1ccc(O)c(O)c1)C(=O)O [Rosmarinic acid],remaining activity at 1.25 µM,[1]; Well no.=3940,102%
same,remaining activity at 1.25 µM,[1]; Well no.=4516,95%
same,remaining activity at 3.75 µM,[2]; Well no.=3140,103%
same,remaining activity at 3.75 µM,[2]; Well no.=3940,99.3%
same,remaining activity at 3.75 µM,[2]; Well no.=4516,94.6%
CC(C)c1nc(N(C)S(C)(=O)=O)nc(-c2ccc(F)cc2)c1/C=C/[C@@H](O)C[C@@H](O)CC(=O)O [Rosuvastatin Calcium],remaining activity at 1.25 µM,[1]; Well no.=8240,96.8%
same,remaining activity at 3.75 µM,[2]; Well no.=8240,93.8%
C=C(C)[C@H]1Cc2c(ccc3c2O[C@@H]2COc4cc(OC)c(OC)cc4[C@@H]2C3=O)O1 [Rotenone],remaining activity at 1.25 µM,[1]; Well no.=1494,97.2%
same,remaining activity at 1.25 µM,[1]; Well no.=3142,104%
same,remaining activity at 1.25 µM,[1]; Well no.=7122,91.7%
same,remaining activity at 3.75 µM,[2]; Well no.=1494,98.9%
same,remaining activity at 3.75 µM,[2]; Well no.=3142,98.6%
same,remaining activity at 3.75 µM,[2]; Well no.=7122,89.8%
CCCN(CCc1cccs1)[C@H]1CCc2c(O)cccc2C1 [Rotigotine (Hydrochloride)],remaining activity at 1.25 µM,[1]; Well no.=8157,96.4%
same,remaining activity at 3.75 µM,[2]; Well no.=8157,89.4%
CCCN(CCc1cccs1)[C@H]1CCc2c(O)cccc2C1 [Rotigotine],remaining activity at 1.25 µM,[1]; Well no.=8349,92.3%
same,remaining activity at 3.75 µM,[2]; Well no.=8349,88.8%
CC(=O)c1c(O)c(C)c(O)c(Cc2c(O)c3c(c(C(=O)/C=C/c4ccccc4)c2O)OC(C)(C)C=C3)c1O [Rottlerin],remaining activity at 1.25 µM,[1]; Well no.=1206,103%
same,remaining activity at 3.75 µM,[2]; Well no.=1206,102%
COc1cc2c(cc1OC)[C@@H]1Cc3ccc(OC)c(OC)c3CN1CC2 [Rotundine],remaining activity at 1.25 µM,[1]; Well no.=4894,96.9%
same,remaining activity at 3.75 µM,[2]; Well no.=4894,94.7%
CC(=O)OCC(=O)NCCCOc1cccc(CN2CCCCC2)c1 [Roxatidine (Acetate Hydrochloride)],remaining activity at 1.25 µM,[1]; Well no.=6701,102%
same,remaining activity at 3.75 µM,[2]; Well no.=6701,105%
CC(=O)OCC(=O)NCCCOc1cccc(CN2CCCCC2)c1 [Roxatidine acetate.HCl],remaining activity at 1.25 µM,[1]; Well no.=2235,97.2%
same,remaining activity at 3.75 µM,[2]; Well no.=2235,101%
CC[C@H]1OC(=O)[C@H](C)[C@@H](O[C@H]2C[C@@](C)(OC)[C@@H](O)[C@H](C)O2)[C@H](C)[C@@H](O[C@@H]2O[C@H](C)C[C@H](N(C)C)[C@H]2O)[C@](C)(O)C[C@@H](C)/C(=N\OCOCCOC)[C@H](C)[C@@H](O)[C@]1(C)O [Roxithromycin],remaining activity at 1.25 µM,[1]; Well no.=2237,101%
same,remaining activity at 3.75 µM,[2]; Well no.=2237,102%
C=C1C(=O)[C@]23[C@H](CC[C@@H]1[C@@H]2O)[C@]12CO[C@@]3(O)[C@H](O)[C@H]1C(C)(C)CC[C@@H]2O [Rubescensin A],remaining activity at 1.25 µM,[1]; Well no.=3707,95.2%
same,remaining activity at 3.75 µM,[2]; Well no.=3707,93.6%
CN1CCN(c2c(F)cc3c(=O)c(C(=O)O)cn4c3c2SCC4)CC1 [Rufloxacin],remaining activity at 1.25 µM,[1]; Well no.=2239,98.6%
same,remaining activity at 3.75 µM,[2]; Well no.=2239,97.3%
